Measured values from patent publication US10689354B2, “Aminoazole derivative” (Teijin Pharma Limited, priority 2015, dated 2020).

Legend:
human androgen receptor = target: T1, human androgen receptor (Homo sapiens, UniProt P10275); assay: Reporter assay of an androgen receptor responsive sequence (luciferase, transiently transfected HEK293 cells); assay type: cell-based; conditions: 24 hours incubation, relative to activity of 100 nM DHT, read-out: AR transcriptive activity (pEC50) (converted)
T1 construct: expressed in transfected cells; host or cells: HEK293
T1 sequence (P10275 1-920): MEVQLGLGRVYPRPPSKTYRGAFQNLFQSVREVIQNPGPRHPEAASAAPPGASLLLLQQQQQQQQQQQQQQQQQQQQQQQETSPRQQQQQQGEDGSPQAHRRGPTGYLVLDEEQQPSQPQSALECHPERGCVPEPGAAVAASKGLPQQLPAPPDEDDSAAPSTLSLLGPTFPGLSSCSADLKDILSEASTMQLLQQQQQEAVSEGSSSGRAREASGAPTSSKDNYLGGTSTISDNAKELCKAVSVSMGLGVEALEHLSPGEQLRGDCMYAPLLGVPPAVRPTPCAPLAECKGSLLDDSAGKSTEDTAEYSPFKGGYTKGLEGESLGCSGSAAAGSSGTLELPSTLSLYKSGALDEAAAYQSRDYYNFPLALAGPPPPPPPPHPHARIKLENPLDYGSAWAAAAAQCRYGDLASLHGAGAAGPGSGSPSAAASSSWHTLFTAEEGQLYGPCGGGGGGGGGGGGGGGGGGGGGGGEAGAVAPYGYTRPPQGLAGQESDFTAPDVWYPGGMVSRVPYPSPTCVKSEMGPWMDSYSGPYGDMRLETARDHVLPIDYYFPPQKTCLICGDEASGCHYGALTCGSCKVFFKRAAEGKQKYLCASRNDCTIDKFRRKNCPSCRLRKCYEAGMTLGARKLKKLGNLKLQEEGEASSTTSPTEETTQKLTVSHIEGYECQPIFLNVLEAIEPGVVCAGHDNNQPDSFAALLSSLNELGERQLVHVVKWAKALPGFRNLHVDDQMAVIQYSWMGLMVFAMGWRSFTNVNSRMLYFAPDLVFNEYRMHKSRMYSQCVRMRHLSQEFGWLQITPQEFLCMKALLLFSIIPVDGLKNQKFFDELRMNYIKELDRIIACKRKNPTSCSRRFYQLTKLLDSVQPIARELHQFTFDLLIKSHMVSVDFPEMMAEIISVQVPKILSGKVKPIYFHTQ
Summary of the method: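 Agonism scored as pEC50, fitted by 4-parameter curve against the response to 100 nM DHT, from dual-luciferase readout after 24 h compound treatment. Cells were HEK293 co-transfected (3 h) with human AR expression vector, androgen-responsive firefly reporter and Renilla control, in charcoal-stripped serum.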

[1] = target: T2, androgen receptor (AR-LBD) (Rattus norvegicus, UniProt P15207); assay: Evaluation of androgen receptor affinity (PolarScreen Androgen Receptor Competitor Assay Kit, Red; fluorescence polarization); conditions: 22° C. for 5 hours, relative to binding rate of 1 μM DHT, read-out: AR affinity (pEC50) (converted)
T2 construct: 5 μL of 2×AR-LBD/Fluoromone AL Red Complex contained in the kit; purchased Invitrogen
T2 sequence (P15207 651-882 limits assumed): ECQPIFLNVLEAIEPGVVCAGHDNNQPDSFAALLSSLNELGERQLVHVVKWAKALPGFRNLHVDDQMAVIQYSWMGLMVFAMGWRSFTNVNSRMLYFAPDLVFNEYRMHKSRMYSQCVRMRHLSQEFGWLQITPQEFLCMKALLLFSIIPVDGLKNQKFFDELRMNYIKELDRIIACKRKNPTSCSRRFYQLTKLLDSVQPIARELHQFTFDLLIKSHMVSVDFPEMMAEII
Summary of the method: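 Duplicate wells; compound plus AR-LBD tracer complex incubated 22° C for 5 h, then FP measured. Effect compared with 1 μM DHT; 50%-effect concentration expressed as pEC50.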

Cc1sc(N(CCc2ccc(Cl)cc2)Cc2ccc(OC(F)(F)F)cc2)nc1C(=O)NS(=O)(=O)C(F)(F)F [Compound 704, 2-[2-(4-chlorophenyl)ethyl-[[4-(trifluoromethoxy)phenyl]methyl]amino]-5-methyl-N-(trifluoromethylsulfonyl)thiazole-4-carboxamide]
EC50 (human androgen receptor): > 10000 nM
EC50 [1]: 316 nM

Cc1sc(N(Cc2cccc(-n3cccn3)c2)c2ccc(C#N)cc2)nc1C(=O)NS(C)(=O)=O [Example 219, 2-[4-cyano-N-[(3-pyrazol-1-ylphenyl)methyl]anilino]-5-methyl-N-methylsulfonyl-thiazole-4-carboxamide]
EC50 (human androgen receptor): 1580 nM
EC50 [1]: 63.1 nM

Cc1sc(N(CCc2ccc(OC(F)F)cc2)Cc2nc(C3CC3)no2)nc1C(=O)NS(C)(=O)=O [Compound 162, 2-[(3-cyclopropyl-1,2,4-oxadiazol-5-yl)methyl-[2-[4-(difluoromethoxy)phenyl]ethyl]amino]-5-methyl-N-methylsulfonyl-thiazole-4-carboxamide]
EC50 (human androgen receptor): 1000 nM
EC50 [1]: 158 nM

Cc1sc(N(Cc2ccc(Cl)cc2C#N)c2ccc(C#N)cc2)nc1C(=O)NS(C)(=O)=O [Example 184, 2-[N-[(4-chloro-2-cyano-phenyl)methyl]-4-cyano-anilino]-5-methyl-N-methylsulfonyl-thiazole-4-carboxamide]
EC50 (human androgen receptor): > 10000 nM
EC50 [1]: 501 nM

Cc1sc(N(Cc2ccc(OCC(F)(F)F)cc2)c2ccc(C#N)cc2)nc1C(=O)NS(C)(=O)=O [Compound 580, 2-[4-cyano-N-[[4-(2,2,2-trifluoroethoxy)phenyl]methyl]anilino]-5-methyl-N-methylsulfonyl-thiazole-4-carboxamide]
EC50 (human androgen receptor): 631 nM
EC50 [1]: 25.1 nM

CCc1oc(N(Cc2ccc(C(F)(F)F)cn2)c2ccc(C#N)cc2)nc1C(=O)NS(C)(=O)=O [Compound 638, 2-[4-cyano-N-[[5-(trifluoromethyl)-2-pyridyl]methyl]anilino]-5-ethyl-N-methylsulfonyl-oxazole-4-carboxamide]
EC50 (human androgen receptor): 3160 nM
EC50 [1]: 200 nM

Cc1sc(N(Cc2ccc(OCCCO)cc2)c2ccc(C#N)cc2)nc1C(=O)NS(C)(=O)=O [Compound 579, 2-[4-cyano-N-[[4-(3-hydroxypropoxy)phenyl]methyl]anilino]-5-methyl-N-methylsulfonyl-thiazole-4-carboxamide]
EC50 (human androgen receptor): 7940 nM
EC50 [1]: 200 nM

CCc1oc(N(Cc2ccc(Cl)c(Cl)c2)c2ccc(C#N)cc2)nc1C(=O)NS(C)(=O)=O [Compound 633, 2-[4-cyano-N-[(3,4-dichlorophenyl)methyl]anilino]-5-ethyl-N-methylsulfonyl-oxazole-4-carboxamide]
EC50 (human androgen receptor): 126 nM
EC50 [1]: 31.6 nM

COc1ccccc1CN(c1ccc(C#N)cc1)c1nc(C(=O)NS(C)(=O)=O)c(Cl)s1 [Example 270, 5-chloro-2-[4-cyano-N-[(2-methoxyphenyl)methyl]anilino]-N-methylsulfonyl-thiazole-4-carboxamide]
EC50 (human androgen receptor): 251 nM
EC50 [1]: 79.4 nM

Cc1sc(N(Cc2ccc(C(F)(F)F)cn2)c2ccc(C#N)cc2)nc1C(=O)NS(C)(=O)=O [Compound 514, 2-[4-cyano-N-[[5-(trifluoromethyl)-2-pyridyl]methyl]anilino]-5-methyl-N-methylsulfonyl-thiazole-4-carboxamide]
EC50 (human androgen receptor): 158 nM
EC50 [1]: 126 nM

CS(=O)(=O)NC(=O)c1nc(N(Cc2ccccc2OC(F)F)c2ccc(C#N)cc2)sc1Br [Example 254, 5-bromo-2-[4-cyano-N-[[2-(difluoromethoxy)phenyl]methyl]anilino]-N-methylsulfonyl-thiazole-4-carboxamide]
EC50 (human androgen receptor): 158 nM
EC50 [1]: 39.8 nM

Cc1sc(N(Cc2cc3ccccc3o2)c2ccc(C#N)cc2)nc1C(=O)NS(C)(=O)=O [Compound 479, 2-[N-(benzofuran-2-ylmethyl)-4-cyano-anilino]-5-methyl-N-methylsulfonyl-thiazole-4-carboxamide]
EC50 (human androgen receptor): 63.1 nM
EC50 [1]: 63.1 nM

CS(=O)(=O)NC(=O)c1nc(N(Cc2ccc(F)cn2)c2ccc(C#N)cc2)sc1Br [Compound 640, 5-bromo-2-[4-cyano-N-[(5-fluoro-2-pyridyl)methyl]anilino]-N-methylsulfonyl-thiazole-4-carboxamide]
EC50 (human androgen receptor): 316 nM
EC50 [1]: 398 nM

CS(=O)(=O)NC(=O)c1nc(N(Cc2ccc(OC(F)(F)F)cc2)c2ccc(C#N)cc2)sc1Br [Example 253, 5-bromo-2-[4-cyano-N-[[4-(trifluoromethoxy)phenyl]methyl]anilino]-N-methylsulfonyl-thiazole-4-carboxamide]
EC50 (human androgen receptor): 79.4 nM
EC50 [1]: 31.6 nM

CCS(=O)(=O)NC(=O)c1nc(N(Cc2ccccc2)c2ccc(C#N)cc2)sc1C [Compound 362, 2-(N-benzyl-4-cyano-anilino)-N-ethylsulfonyl-5-methyl-thiazole-4-carboxamide]
EC50 (human androgen receptor): 251 nM
EC50 [1]: 63.1 nM

COCCCS(=O)(=O)NC(=O)c1nc(N(Cc2ccc(Cl)cc2)c2ccc(C#N)cc2)sc1C1CC1 [Compound 665, 2-[N-[(4-chlorophenyl)methyl]-4-cyano-anilino]-5-cyclopropyl-N-(3-methoxypropylsulfonyl)thiazole-4-carboxamide]
EC50 (human androgen receptor): > 10000 nM
EC50 [1]: 20 nM

Cc1sc(N(Cc2ccc3nsnc3c2)c2ccc(C#N)cc2)nc1C(=O)NS(C)(=O)=O [Compound 114, 2-[N-(2,1,3-benzothiadiazole-5-ylmethyl)-4-cyano-anilino]-5-methyl-N-methylsulfonyl-thiazole-4-carboxamide]
EC50 (human androgen receptor): 158 nM
EC50 [1]: 126 nM

Cc1sc(N(CCC2CCCC2)Cc2ccccc2)nc1C(=O)NS(C)(=O)=O [Compound 683, 2-[benzyl(2-cyclopentylethyl)amino]-5-methyl-N-methylsulfonyl-thiazole-4-carboxamide]
EC50 (human androgen receptor): > 10000 nM
EC50 [1]: 100 nM

Cc1sc(N(Cc2ccc(-c3ccc(F)cc3)cc2)c2ccc(C#N)cc2)nc1C(=O)NS(C)(=O)=O [Compound 141, 2-[4-cyano-N-[[4-(4-fluorophenyl)phenyl]methyl]anilino]-5-methyl-N-methylsulfonyl-thiazole-4-carboxamide]
EC50 (human androgen receptor): 316 nM
EC50 [1]: 50.1 nM

Cc1sc(N(Cc2ccc3ncccc3c2)c2ccc(C#N)cc2)nc1C(=O)NS(C)(=O)=O [Compound 403, 2-[4-cyano-N-(6-quinolylmethyl)anilino]-5-methyl-N-methylsulfonyl-thiazole-4-carboxamide]
EC50 (human androgen receptor): 251 nM
EC50 [1]: 251 nM

Cc1sc(N(Cc2ccccc2)c2ccc(C(F)(F)F)cc2)nc1C(=O)NS(C)(=O)=O [Compound 341, 2-[N-benzyl-4-(trifluoromethyl)anilino]-5-methyl-N-methylsulfonyl-thiazole-4-carboxamide]
EC50 (human androgen receptor): 1260 nM
EC50 [1]: 63.1 nM

CCc1oc(N(Cc2ccc(Br)c(Cl)c2)c2ccc(C#N)cc2)nc1C(=O)NS(C)(=O)=O [Compound 650, 2-[N-[(4-bromo-3-chloro-phenyl)methyl]-4-cyano-anilino]-5-ethyl-N-methylsulfonyl-oxazole-4-carboxamide]
EC50 (human androgen receptor): 200 nM
EC50 [1]: 31.6 nM

CCc1oc(N(Cc2ccc(Br)cc2)c2ccc(C#N)cc2)nc1C(=O)NS(C)(=O)=O [Compound 653, 2-[N-[(4-bromophenyl)methyl]-4-cyano-anilino]-5-ethyl-N-methylsulfonyl-oxazole-4-carboxamide]
EC50 (human androgen receptor): 158 nM
EC50 [1]: 50.1 nM

CCc1oc(N(Cc2ccc(OC(F)F)cc2)c2ccc(C#N)cc2)nc1C(=O)NS(C)(=O)=O [Compound 634, 2-[4-cyano-N-[[4-(difluoromethoxy)phenyl]methyl]anilino]-5-ethyl-N-methylsulfonyl-oxazole-4-carboxamide]
EC50 (human androgen receptor): 398 nM
EC50 [1]: 39.8 nM
